# Measurements from patent US8835420B2, “Azaindole derivatives” (Takeda Pharmaceutical Company Limited, priority 2012, dated 2014).
# Target: T1, PI3Kδ (recombinant GST-tagged PIK3CD co-expressed with PIK3R1, p85α) (Homo sapiens, UniProt O00329)
# T1 construct: The protein is full length and co-expressed with untagged PIK3R1; GST; purchased Invitrogen PV5274
# Assay: PI3Kδ inhibition, modified PIK3CD Adapta TR-FRET kinase assay
# Assay type: biochemical
# Conditions: 2 μM ATP, 50 μM PIP2, 1 hour at room temperature, pIC50 = -log(IC50 in M)
# Protocol: The activity of compounds as PI3Kδ inhibitors may be determined by a variety of methods, including in vitro and in vivo methods. The following in vitro assay measures a test compound's ability to inhibit PI3Kδ-mediated phosphorylation of PIP2 and ATP.
# Recombinant GST-tagged PIK3CD is purchased from Invitrogen (Part Number: PV5274). The protein is full length and co-expressed with untagged PIK3R1, phosphoinositide-3-kinase regulatory subunit 1 (p85α). The protein is stored at −20° C. in 50 mM TRIS (pH 7.5), 150 mM NaCl, 0.5 mM EDTA, 0.02% Triton® X-100, 2 mM DTT, and 50% glycerol.
# A modified PIK3CD Adapta® assay (Invitrogen, Carlsbad, Calif.) is used to measure PI3Kδ inhibition of the example compounds. The assay has two phases. In the first phase, kinase reaction components, which include the enzyme (PIK3CD), substrates (PIP2, ATP), test compound (inhibitor), and assay buffer are added to each well, and the reaction is allowed to incubate for a pre-determined period of time. After reaction, a detection solution composed of a Eu (europium)-labeled anti-ADP antibody, Alexa Fluor® 647-labeled ADP tracer, and EDTA (to stop the kinase reaction) is added to each assay well. In this second phase, ADP formed by the kinase reaction displaces the Alexa Fluor® 647-labeled ADP tracer from the antibody, resulting in a decrease in time-resolved fluorescence resonance energy transfer (TR-FRET) signal. In the presence of the inhibitor, the amount of ADP formed by the kinase reaction is reduced, and the resulting intact antibody-tracer interaction maintains a high TR-FRET signal.
# The assay uses black Greiner® 384-well plates (784076). The reaction buffer contains 50 mM Hepes (pH 7.5), 3 mM MgCl2, 1 mM EGTA, 100 mM NaCl, 0.03% CHAPS; 2 mM DTT is added fresh prior to each experiment. Enzyme (4 μL, estimated 1.5 nM in buffer) is first added to the wells of the plate. Next, test compounds (2 μL) from a source plate (5% dilution plate) are introduced into the wells. The final DMSO concentration in each assay well is 1%. The dilution plate contains 5% DMSO in the bottom half of columns 23 and 24, which serve as negative (non-inhibited) controls; the top half contains a known inhibitor concentration (positive control) that gives >98% inhibition of the kinase reaction. Other wells contain test compounds serially diluted across the plate 11 times for a total of 12 data points. The kinase reactions are carried out at room temperature and are initiated by the addition of 4 μL of solution containing 2 μM ATP and 50 μM PIP2. Each reaction is stopped after 1 hour±10 minutes via addition of 10 μL stop solution, which contains a final assay concentration of 3 nM Alexa Fluor® 647-labeled ADP tracer, 2 nM Eu-anti-ADP Antibody, and 10 mM EDTA. After allowing the solutions to equilibrate for 30±10 minutes, a PHERAstar plate reader is used to excite the Eu donor (at 337 nm) and to detect emission from the Alexa Fluor® 647 at 665 nm. This emission signal is referenced or “ratioed” to the emission from Eu at 620 nm. The emission ratio (665 nm/620 nm) from each well is collected and converted to percent conversion using a standard curve for the assay conditions: % conversion=B*(C+A−emission ratio)/(emission ratio−C), where “A” and “C” are the maximum and minimum values of the emission ratio obtained from the standard curve of emission ratio vs. % conversion (ATP-ADP); “B” is the emission ratio corresponding to the % conversion at the EC50 value for the ADP Tracer—Eu anti-ADP antibody complex. The percent inhibition for a given inhibitor concentration is computed from % conversion for the reaction and for the positive and negative controls. Corresponding IC50 values are calculated by non-linear curve fitting of the compound concentrations and values of percent inhibition to the standard IC50 equation and are reported as pIC50, i.e., −log(IC50), where IC50 is molar concentration at 50% inhibition.
# T1 sequence (O00329 whole entry): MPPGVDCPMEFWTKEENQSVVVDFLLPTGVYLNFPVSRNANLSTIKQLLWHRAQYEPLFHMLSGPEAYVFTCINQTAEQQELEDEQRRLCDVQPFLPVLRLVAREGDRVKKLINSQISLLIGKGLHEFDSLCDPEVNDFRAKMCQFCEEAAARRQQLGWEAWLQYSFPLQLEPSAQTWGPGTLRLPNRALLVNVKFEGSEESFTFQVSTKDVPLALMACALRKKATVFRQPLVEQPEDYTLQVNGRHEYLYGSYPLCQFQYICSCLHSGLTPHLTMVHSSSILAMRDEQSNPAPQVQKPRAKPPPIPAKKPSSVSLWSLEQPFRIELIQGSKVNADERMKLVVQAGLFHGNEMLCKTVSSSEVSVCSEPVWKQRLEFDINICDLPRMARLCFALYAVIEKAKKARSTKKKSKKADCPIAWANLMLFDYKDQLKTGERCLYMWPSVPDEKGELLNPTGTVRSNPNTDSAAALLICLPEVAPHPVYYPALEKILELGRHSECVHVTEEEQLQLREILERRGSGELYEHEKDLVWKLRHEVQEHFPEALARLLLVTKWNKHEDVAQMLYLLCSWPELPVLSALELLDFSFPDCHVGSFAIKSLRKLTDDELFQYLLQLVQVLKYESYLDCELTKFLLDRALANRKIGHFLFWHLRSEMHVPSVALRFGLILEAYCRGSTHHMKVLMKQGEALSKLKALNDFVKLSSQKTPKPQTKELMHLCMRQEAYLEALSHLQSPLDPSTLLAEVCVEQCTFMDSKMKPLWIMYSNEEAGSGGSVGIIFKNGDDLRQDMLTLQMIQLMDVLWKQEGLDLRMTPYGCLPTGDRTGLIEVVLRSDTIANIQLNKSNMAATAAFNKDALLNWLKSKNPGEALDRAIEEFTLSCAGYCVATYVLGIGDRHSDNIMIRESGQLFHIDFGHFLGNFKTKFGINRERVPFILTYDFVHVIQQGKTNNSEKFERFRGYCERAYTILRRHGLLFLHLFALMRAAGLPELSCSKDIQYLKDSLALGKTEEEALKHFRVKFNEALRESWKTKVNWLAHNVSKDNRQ
# T1 sequence (P27986 whole entry partner): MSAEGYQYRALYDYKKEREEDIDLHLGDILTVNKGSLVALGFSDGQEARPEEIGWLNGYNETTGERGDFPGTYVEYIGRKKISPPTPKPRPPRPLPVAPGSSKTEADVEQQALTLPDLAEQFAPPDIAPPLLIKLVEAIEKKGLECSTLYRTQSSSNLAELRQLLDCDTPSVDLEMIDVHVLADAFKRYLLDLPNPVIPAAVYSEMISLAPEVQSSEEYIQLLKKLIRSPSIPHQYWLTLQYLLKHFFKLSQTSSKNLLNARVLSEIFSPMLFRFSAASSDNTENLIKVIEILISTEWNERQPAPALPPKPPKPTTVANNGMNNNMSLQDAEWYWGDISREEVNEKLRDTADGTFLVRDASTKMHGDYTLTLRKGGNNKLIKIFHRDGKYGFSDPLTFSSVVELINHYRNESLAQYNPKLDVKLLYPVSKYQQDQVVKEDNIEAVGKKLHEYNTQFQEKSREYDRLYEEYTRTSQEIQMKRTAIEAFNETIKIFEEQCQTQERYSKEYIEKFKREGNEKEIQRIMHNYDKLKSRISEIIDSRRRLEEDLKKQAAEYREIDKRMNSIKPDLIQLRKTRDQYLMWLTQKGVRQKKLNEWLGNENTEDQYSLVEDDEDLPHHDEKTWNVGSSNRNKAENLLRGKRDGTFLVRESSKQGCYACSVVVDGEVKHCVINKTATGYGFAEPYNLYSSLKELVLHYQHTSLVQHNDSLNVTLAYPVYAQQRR
row,SMILES,IC50 [nM]
1,"C[C@H](Nc1nc(N)ncc1Cl)c1nc2ccn(C)c2cc1-c1ccnn1C [Example 1, (S)-5-Chloro-N^4-(1-(1-methyl-6-(1-methyl-1H-pyrazol-5-yl)-1H-pyrrolo[3,2-b]pyridin-5-yl)ethyl)pyrimidine-2,4-diamine]",126
2,"C[C@H](Nc1nc(N)nc(N)c1C#N)c1nc2ccn(C)c2cc1-c1ccnn1C [Example 2, (S)-2,4-Diamino-6-((1-(1-methyl-6-(1-methyl-1H-pyrazol-5-yl)-1H-pyrrolo[3,2-b]pyridin-5-yl)ethyl)amino)pyrimidine-5-carbonitrile]",2.51
3,"Cc1nc(N)nc(N[C@@H](C)c2nc3ccn(C)c3cc2-c2ccnn2C)c1C#N [Example 3, (S)-2-Amino-4-methyl-6-((1-(1-methyl-6-(1-methyl-1H-pyrazol-5-yl)-1H-pyrrolo[3,2-b]pyridin-5-yl)ethyl)amino)pyrimidine-5-carbonitrile]",1.58
4,"C[C@H](Nc1nc(N)ncc1C#N)c1nc2ccn(C)c2cc1-c1ccnn1C [Example 4, (S)-2-Amino-4-((1-(1-methyl-6-(1-methyl-1H-pyrazol-5-yl)-1H-pyrrolo[3,2-b]pyridin-5-yl)ethyl)amino)pyrimidine-5-carbonitrile]",63.1
5,"C[C@H](Nc1nc(N)ncc1Cl)c1nc2ccn(C)c2cc1N1CCOCC1 [Example 5, (S)-5-Chloro-N^4-(1-(1-methyl-6-morpholino-1H-pyrrolo[3,2-b]pyridin-5-yl)ethyl)pyrimidine-2,4-diamine]",126
6,"Cc1nc(N)c(C#N)c(NC(C)c2nc3ccn(C)c3cc2N2CCOCC2)n1 (stereo not drawn) [Example 6, 4-Amino-2-methyl-6-((1-(1-methyl-6-morpholino-1H-pyrrolo[3,2-b]pyridin-5-yl)ethyl)amino)pyrimidine-5-carbonitrile]",63.1
7,"C[C@H](Nc1nc(N)ncc1F)c1nc2ccn(C)c2cc1-c1ccnn1C [Example 7, (S)-5-Fluoro-N^4-(1-(1-methyl-6-(1-methyl-1H-pyrazol-5-yl)-1H-pyrrolo[3,2-b]pyridin-5-yl)ethyl)pyrimidine-2,4-diamine]",79400
8,"C[C@H](Nc1nc(O)nc(N)c1C#N)c1nc2ccn(C)c2cc1N1CCOCC1 [Example 8, (S)-4-Amino-2-hydroxy-6-((1-(1-methyl-6-morpholino-1H-pyrrolo[3,2-b]pyridin-5-yl)ethyl)amino)pyrimidine-5-carbonitrile]",1000
9,"Cc1nc(N)nc(N[C@@H](C)c2nc3ccn(C)c3cc2N2CCOCC2)c1C#N [Example 9, (S)-2-Amino-4-methyl-6-((1-(1-methyl-6-morpholino-1H-pyrrolo[3,2-b]pyridin-5-yl)ethyl)amino)pyrimidine-5-carbonitrile]",0.794
10,"C[C@H](Nc1nc(N)nc(N)c1C#N)c1nc2ccn(C)c2cc1N1CCOCC1 [Example 10, (S)-2,4-Diamino-6-((1-(1-methyl-6-morpholino-1H-pyrrolo[3,2-b]pyridin-5-yl)ethyl)amino)pyrimidine-5-carbonitrile]",< 2.51
11,"C[C@H](Nc1nc(O)nc(N)c1C#N)c1nc2ccn(C)c2cc1-c1ccnn1C [Example 11, (S)-4-Amino-2-hydroxy-6-((1-(1-methyl-6-(1-methyl-1H-pyrazol-5-yl)-1H-pyrrolo[3,2-b]pyridin-5-yl)ethyl)amino)pyrimidine-5-carbonitrile]",1260
12,"C[C@H](Nc1nc(N)nc(N)c1C#N)c1nc2ccn(C)c2cc1-c1ccccn1 [Example 12, (S)-2,4-Diamino-6-((1-(1-methyl-6-(pyridin-2-yl)-1H-pyrrolo[3,2-b]pyridin-5-yl)ethyl)amino)pyrimidine-5-carbonitrile]",1.58
13,"C[C@H](Nc1nc(N)nc(N)c1C#N)c1nc2ccn(C)c2cc1-c1ccn[nH]1 [Example 13, (S)-2,4-Diamino-6-((1-(1-methyl-6-(1H-pyrazol-5-yl)-1H-pyrrolo[3,2-b]pyridin-5-yl)ethyl)amino)pyrimidine-5-carbonitrile]",2
14,"Cc1n[nH]c(C)c1-c1cc2c(ccn2C)nc1[C@H](C)Nc1nc(N)nc(N)c1C#N [Example 14, 2,4-Diamino-6-(((1S)-1-(6-(3,5-dimethyl-1H-pyrazol-4-yl)-1-methyl-1H-pyrrolo[3,2-b]pyridin-5-yl)ethyl)amino)pyrimidine-5-carbonitrile]",7.94
15,"C[C@H](Nc1nc(N)nc(N)c1C#N)c1nc2ccn(C)c2cc1-c1ccnc(O)c1 [Example 15, (S)-2,4-Diamino-6-((1-(6-(2-hydroxypyridin-4-yl)-1-methyl-1H-pyrrolo[3,2-b]pyridin-5-yl)ethyl)amino)pyrimidine-5-carbonitrile]",< 1
16,"C[C@H](Nc1nc(N)nc2[nH]cnc12)c1nc2ccn(C)c2cc1-c1ccnn1C [Example 16, (S)—N^6-(1-(1-Methyl-6-(1-methyl-1H-pyrazol-5-yl)-1H-pyrrolo[3,2-b]pyridin-5-yl)ethyl)-9H-purine-2,6-diamine]",7.94
17,"C[C@H](Nc1nc(N)nc(N)c1C#N)c1nc2ccn(C)c2cc1-c1cscn1 [Example 17, (S)-2,4-Diamino-6-((1-(1-methyl-6-(thiazol-4-yl)-1H-pyrrolo[3,2-b]pyridin-5-yl)ethyl)amino)pyrimidine-5-carbonitrile]",< 1
18,"C[C@H](Nc1nc(N)nc2[nH]ncc12)c1nc2ccn(C)c2cc1-c1ccnn1C [Example 18, (S)—N^4-(1-(1-Methyl-6-(1-methyl-1H-pyrazol-5-yl)-1H-pyrrolo[3,2-b]pyridin-5-yl)ethyl)-1H-pyrazolo[3,4-d]pyrimidine-4,6-diamine]",501
19,"Cc1n[nH]cc1-c1cc2c(ccn2C)nc1[C@H](C)Nc1nc(N)nc(C)c1C#N [Example 19, (S)-2-Amino-4-methyl-6-((1-(1-methyl-6-(3-methyl-1H-pyrazol-4-yl)-1H-pyrrolo[3,2-b]pyridin-5-yl)ethyl)amino)pyrimidine-5-carbonitrile]",5.01
20,"C[C@H](Nc1nc(N)nc(N)c1C#N)c1nc2ccn(C)c2cc1N1CCC(C)(O)CC1 [Example 21, (S)-2,4-Diamino-6-((1-(6-(4-hydroxy-4-methylpiperidin-1-yl)-1-methyl-1H-pyrrolo[3,2-b]pyridin-5-yl)ethyl)amino)pyrimidine-5-carbonitrile]",5.01
21,"C[C@@H](Nc1nc(N)nc(N)c1C#N)c1nc2ccn(C)c2cc1N1CCC(C)(O)CC1 [Example 22, (R)-2,4-Diamino-6-((1-(6-(4-hydroxy-4-methylpiperidin-1-yl)-1-methyl-1H-pyrrolo[3,2-b]pyridin-5-yl)ethyl)amino)pyrimidine-5-carbonitrile]",2000
22,"Cc1nc(N)nc(N[C@@H](C)c2nc3ccn(C)c3cc2-c2ccnc(O)c2)c1C#N [Example 23, (S)-2-Amino-4-((1-(6-(2-hydroxypyridin-4-yl)-1-methyl-1H-pyrrolo[3,2-b]pyridin-5-yl)ethyl)amino)-6-methylpyrimidine-5-carbonitrile]",< 1
23,"Cc1nc(N)nc(N[C@@H](C)c2nc3ccn(C)c3cc2-c2ccccn2)c1C#N [Example 24, (S)-2-Amino-4-methyl-6-((1-(1-methyl-6-(pyridin-2-yl)-1H-pyrrolo[3,2-b]pyridin-5-yl)ethyl)amino)pyrimidine-5-carbonitrile]",< 1
24,"Cc1nc(N)nc(N[C@@H](C)c2nc3ccn(C)c3cc2C2CCOCC2)c1C#N [Example 25, (S)-2-Amino-4-methyl-6-((1-(1-methyl-6-(tetrahydro-2H-pyran-4-yl)-1H-pyrrolo[3,2-b]pyridin-5-yl)ethyl)amino)pyrimidine-5-carbonitrile]",< 1.26
